Results on 84 compounds are retold here after the supplement of paper PMC3493320.

For the assay, the system named is NCI-H295R. The experiment in a line: IC50 (antiproliferative, ATP content). The conditions noted are these: 48 h. The gist of the method: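 In 1536-well plates, 1500 adrenocortical carcinoma cells per well were grown overnight in serum-free, ITS-supplemented DMEM before compounds were pin-transferred at 8 final concentrations (0.6 nM to 46 µM). After 48 h at 37 °C and 5% CO2, CellTiter-Glo luminescence was read following 20 min at room temperature and normalised to vehicle and positive-control wells. IC50 values came from logistic curve fits, with compounds lacking any concentration response listed as above the top dose.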
With `CCOc1cc(CC(=O)N[C@@H](CC(C)C)c2ccccc2N2CCCCC2)ccc1C(=O)O`, the IC50 (as a rule, the midpoint of a concentration-inhibition curve) is above 46 µM. For `ClC=C(Cl)Cl` the value was above 46 µM.

`CCCCCC(C)N.CCCCCC(C)N.O=S(=O)(O)O` (centres undefined) registered a 50% inhibitory concentration (IC50) above 46 µM. For `C[C@]12CCC(=O)C=C1C=C[C@@H]1[C@@H]2CC[C@@]2(C)[C@H]1CC[C@@]2(O)CCC(=O)[O-].[K+]` the value was above 46 µM. For `CN1C(C(=O)Nc2ccccn2)=C(O)c2sccc2S1(=O)=O` the value was above 46 µM; for `c1ccc(C2(N3CCCC3)CCCCC2)cc1`, above 46 µM; for `CCCCC/C=C\C/C=C\CCCCCCCC(=O)OCC`, above 46 µM. For `CCN(CC)CCNC(C(=O)OCCC(C)C)c1ccccc1` (centres undefined) the value was above 46 µM. `NC(=O)CS(=O)C(c1ccccc1)c1ccccc1` (centres undefined) registered an IC50 above 46 µM.

The compound `CC(C)c1nc(N(C)S(C)(=O)=O)nc(-c2ccc(F)cc2)c1/C=C/C(O)CC(O)CC(=O)[O-].CC(C)c1nc(N(C)S(C)(=O)=O)nc(-c2ccc(F)cc2)c1/C=C/C(O)CC(O)CC(=O)[O-].[Ca+2]` (centres undefined) showed an IC50 above 46 µM. The compound `O=C(O)CCCC/C=C(\c1ccccc1)c1cccnc1` came in with a half-inhibitory concentration (IC50) above 46 µM. As for `Cc1ccc(C(=O)c2ccc(CC(=O)[O-])n2C)cc1.O.O.[Na+]`, the IC50 is above 46 µM. The result for `O=C(O)c1cc(-c2ccc(F)cc2F)ccc1O` reads above 46 µM; that for `CC1(C)S[C@@H]2[C@H](NC(=O)C(N)c3ccccc3)C(=O)N2[C@H]1C(=O)OC1OC(=O)c2ccccc21.Cl` (some centres undefined), above 46 µM.

`O.O.O.O.[Na+].[O-]c1ccccc1-c1ccccc1` showed an IC50 above 46 µM. `FC(F)(F)c1ccccc1-n1ccnc1` registered an IC50 above 46 µM.

Compound `C\C1=C\N(C(=O)NC1=O)[C@H]2\C=C/[C@@H](CO)O2` yielded a half-maximal inhibitory concentration (IC50) above 46 µM. The result for `c1ccc2c(c1)Sc1ccccc1N2CCN1CCCC1` reads above 46 µM. For `CC(=O)Oc1ccc(C)cc1` the value was above 46 µM. As to `C=CCN1CC[C@]23c4c5ccc(O)c4O[C@H]2[C@@H](O)C=C[C@H]3[C@H]1C5.Cl`, the half-inhibitory concentration (IC50) was above 46 µM. The result for `CC(C)(C)C(=O)OCOP(=O)(COCCn1cnc2c(N)ncnc21)OCOC(=O)C(C)(C)C` reads above 46 µM; that for `CCCOc1ccccc1-c1nc2[nH]nnc2c(=O)[nH]1`, above 46 µM. `CN1CC(=O)NC1=N` registered an IC50 above 46 µM.

In turn, `Br.CN1[C@@H]2C[C@@H](OC(=O)[C@H](CO)c3ccccc3)C[C@H]1[C@@H]1O[C@@H]12.O.O.O` had a half-maximal inhibitory concentration (IC50) above 46 µM.

Take `O=C(O)c1ccc(OCCn2ccnc2)cc1`: the IC50 was above 46 µM. The result for `CC(S)C(=O)NCC(=O)O` (centres undefined) reads above 46 µM; that for `Cc1cc(C)cc(OCC2CNC(=O)O2)c1` (centres undefined), above 46 µM. For `CCOc1ccc(NC(=O)CC(C)O)cc1` (centres undefined) the value was above 46 µM; for `Cl.Cl.NCCNc1cccc2ccccc12`, above 46 µM; for `CC=CC=CC(=O)O`, above 46 µM. For `C=CC[N+]1([C@H]2C[C@H]3[C@@H]4CC[C@H]5C[C@H](O)[C@@H](N6CCOCC6)C[C@]5(C)[C@H]4CC[C@]3(C)[C@H]2OC(C)=O)CCCC1.[Br-]` the value was above 46 µM; for `CC(C)OC(=O)C(C)(C)Oc1ccc(C(=O)c2ccc(Cl)cc2)cc1`, above 46 µM; for `CCCCCCCCCCCCCC[n+]1ccc(C)cc1.[Cl-]`, above 46 µM. Regarding `C[C@]12CCC(=O)C[C@@H]1CC[C@@H]1[C@@H]2CC[C@]2(C)C=CC[C@@H]12`, the IC50 is above 46 µM. For `CC(C)(C)NCC(O)COc1cccc2c1C[C@H](O)[C@H](O)C2` (some centres undefined) the value was above 46 µM; for `CC(C)NCC(O)c1ccc(N)c(C#N)c1` (centres undefined), above 46 µM; for `CCC1OC(=O)C[C@@H](O)[C@H](C)[C@@H](O[C@@H]2O[C@H](C)C[C@H](N(C)C)[C@H]2O)[C@@H](CC=O)C[C@@H](C)C(=O)/C=C/[C@]2(C)OC2C1C` (some centres undefined), above 46 µM.

Turning to `CN1CCC(O)(c2ccc(F)cc2)C(C(=O)c2ccc(F)cc2)C1` (centres undefined), the IC50 is above 46 µM.

In turn, `CN1CCC[C@@H]1Cc1c[nH]c2ccc(CCS(=O)(=O)c3ccccc3)cc12` returned an IC50 above 46 µM.

On to `O=C(c1ccccc1)C(O)c1ccccc1` (centres undefined), for which the IC50 is above 46 µM. For `CC(C)(C)C(=O)OCOC(=O)[C@@H]1N2C(=O)[C@@H](NC(=O)[C@H](N)c3ccccc3)[C@H]2SC1(C)C` the value was above 46 µM. The result for `N[C@@H](CSSC[C@H](N)C(=O)O)C(=O)O` reads above 46 µM.

The compound `O=[C@](O)[C@H](CC1)NC1=O` displayed a concentration for half-maximal inhibition (IC50) above 46 µM. The compound `O=C(C)N(CC4)CCN4C(C=C5)=CC=C5OC[C@]2([H])O[C@@](OC2)(CN3C=NC=C3)[C@@]1=CC=C(Cl)C=C1Cl` yielded an IC50 above 46 µM. Regarding `CCCCC[C@H](O)/C=C/[C@@H]1[C@@H](C/C=C\CCCC(=O)O)[C@@H](O)C[C@H]1O.COC(N)(CO)CO`, the half-inhibitory concentration (IC50) is above 46 µM. For `C=CCOC(Cn1ccnc1)c1ccc(Cl)cc1Cl.O=S(=O)(O)O` (centres undefined) the value was above 46 µM. For `CNC1(c2ccccc2Cl)CCCCC1=O` (centres undefined) the value was above 46 µM. For `Cc1ccc(-c2nc3ccc(C)cn3c2CC(=O)N(C)C)cc1` the value was above 46 µM; for `O=[N+]([O-])O[C@@H]1CO[C@H]2[C@@H]1OC[C@@H]2O`, above 46 µM. As to `CC[C@H](C)C(=O)O[C@H]1CCC=C2C=C[C@H](C)[C@H](CC[C@@H]3C[C@@H](O)CC(=O)O3)[C@H]21`, the IC50 is above 46 µM. For `COc1ccc(CN2CCNCC2)c(OC)c1OC.Cl.Cl` the value was above 46 µM. The result for `CNCC(O)c1ccc(O)cc1` (centres undefined) reads above 46 µM; that for `CO[C@H]1C[C@@H]2CC[C@@H](C)[C@@](O)(O2)C(=O)C(=O)N2CCCC[C@H]2C(=O)O[C@H]([C@H](C)C[C@@H]2CC[C@@H](OC(=O)C(C)(CO)CO)[C@H](OC)C2)CC(=O)[C@H](C)/C=C(\C)[C@@H](O)[C@@H](OC)C(=O)[C@H](C)C[C@H](C)/C=C/C=C/C=C/1C`, above 46 µM.

The compound `N#CC2=CC=C1[C@@](OCC1=C2)([C@]3=CC=C(C=C3)F)CCCN(C)C.OC(C(O)=O)=O` showed an IC50 above 46 µM.

For the compound `O=C3[C@@H]4[C@]([C@](CC6)(C)[C@H]([C@@]5=COC=C5)O3)(O4)[C@@]2(C)[C@@]6([H])[C@@]1(CO7)[C@H](CC7=O)OC(C)(C)[C@@]([H])1CC2=O`, the IC50 was above 46 µM.

The compound `CCCCCNC(=N)N/N=C/c1c[nH]c2ccc(OC)cc12` yielded an IC50 above 46 µM. For `Nc1ccc(S(=O)(=O)Nc2ccccc2)cc1` the value was above 46 µM. For `CC/C=C\C/C=C\C/C=C\C/C=C\C/C=C\C/C=C/CCC(=O)O`, the half-inhibitory concentration (IC50) was above 46 µM. The result for `O=C1O[C@H]([C@@H](O)CO)C(O)=C1O` reads above 46 µM. For `NCCCC[C@H](N)C(=O)O` the value was above 46 µM; for `[NH2][Pt]1([NH2])[O]C(=O)C2(CCC2)C(=O)[O]1`, above 46 µM; for `O=C/C=C/c1ccccc1`, above 46 µM.

With `O=C1[O][Bi]([OH])[O]c2ccccc21`, the half-maximal inhibitory concentration (IC50) is above 46 µM. The result for `COc1ccc2cc([C@H](C)CO)ccc2c1` reads above 46 µM.

`O=C(N[C@H](CO)[C@H](O)c1ccc([N+](=O)[O-])cc1)C(Cl)Cl` came in with an IC50 above 46 µM. For `O=C1NCCN1c1ncc([N+](=O)[O-])s1` the value was above 46 µM. For `COc1nc(N)nc2c1ncn2[C@@H]1O[C@H](CO)[C@@H](O)[C@@H]1O` the value was above 46 µM.

Take `COCCc1ccc(OCC(O)CNC(C)C)cc1.COCCc1ccc(OCC(O)CNC(C)C)cc1.O=C(O)[C@H](O)[C@@H](O)C(=O)O` (centres undefined): the half-inhibitory concentration (IC50) was above 46 µM. In the case of `[Cl][In]([Cl])[Cl]`, the half-inhibitory concentration (IC50) is above 46 µM. `Cc1cc(-c2ccccc2)nnc1NCCN1CCOCC1.Cl.Cl` gave an IC50 above 46 µM. For `CS(=O)(=O)O.Cc1ccc2c(c1)c1c3n2CCNC3CCC1` (centres undefined) the value was above 46 µM. The result for `CN[C@@H]1[C@@H](O)[C@@H](O[C@@H]2[C@@H](O)[C@H](OC3OC(CN)=CCC3N)[C@@H](N)C[C@H]2N)OC[C@]1(C)O.CN[C@@H]1[C@@H](O)[C@@H](O[C@@H]2[C@@H](O)[C@H](OC3OC(CN)=CCC3N)[C@@H](N)C[C@H]2N)OC[C@]1(C)O.O=S(=O)(O)O.O=S(=O)(O)O.O=S(=O)(O)O.O=S(=O)(O)O.O=S(=O)(O)O` (some centres undefined) reads above 46 µM; that for `C1COC(NC(C2CC2)C2CC2)=N1`, above 46 µM. Regarding `Cc1cc(C)c(C=C2C(=O)Nc3ccccc32)[nH]1`, the IC50 is above 46 µM. The result for `O=C([O-])C[C@H](O)C[C@H](O)/C=C/c1c(C2CC2)nc2ccccc2c1-c1ccc(F)cc1.O=C([O-])C[C@H](O)C[C@H](O)/C=C/c1c(C2CC2)nc2ccccc2c1-c1ccc(F)cc1.[Ca+2]` reads above 46 µM. For `CCC(C)(S(=O)(=O)CC)S(=O)(=O)CC` the value was above 46 µM; for `CCCCN1CCCC[C@H]1C(=O)Nc1c(C)cccc1C.Cl`, above 46 µM; for `OC[C@H]1O[C@@H](O[C@@H]2[C@@H](CO)O[C@](O)(CO)[C@H]2O)[C@H](O)[C@@H](O)[C@H]1O`, above 46 µM.

`CC(C)c1cccc(C(C)C)c1O` came in with an IC50 above 46 µM.

`Cl.NC1CCN(c2cccc(Cl)n2)CC1` yielded an IC50 above 46 µM. For the compound `CC(=C(CCO)SSC(CCO)=C(C)N(C=O)Cc1cnc(C)nc1N)N(C=O)Cc1cnc(C)nc1N`, the 50% inhibitory concentration (IC50) is above 46 µM. The result for `COC(=O)[C@H]1[C@H]2C[C@H]3c4[nH]c5ccccc5c4CCN3C[C@H]2CC[C@@H]1O` reads above 46 µM; that for `CC1CS(=O)(=O)CCN1/N=C/c1ccc([N+](=O)[O-])o1` (centres undefined), above 46 µM.

The compound `Oc1ccc(Cl)cc1Cc1ccccc1` had an IC50 above 46 µM.
